Data as given in patent US20220089578A1, “COMPOUNDS AS GLP-1R AGONISTS” (Terns Pharmaceuticals, Inc., priority 2020, published 2022).

The molecules below were run against human GLP-1R (Homo sapiens, UniProt P43220) (assay: GLP-1R Cell Assay 1: cAMP Hunter CHO-K1 GLP1R Gs cell line, HitHunter cAMP assay). Details: Table 2; cAMP Hunter CHO-K1 GLP1R Gs cells; percent activity normalized to Exendin-4.
human GLP-1R, sequence (P43220 24-463): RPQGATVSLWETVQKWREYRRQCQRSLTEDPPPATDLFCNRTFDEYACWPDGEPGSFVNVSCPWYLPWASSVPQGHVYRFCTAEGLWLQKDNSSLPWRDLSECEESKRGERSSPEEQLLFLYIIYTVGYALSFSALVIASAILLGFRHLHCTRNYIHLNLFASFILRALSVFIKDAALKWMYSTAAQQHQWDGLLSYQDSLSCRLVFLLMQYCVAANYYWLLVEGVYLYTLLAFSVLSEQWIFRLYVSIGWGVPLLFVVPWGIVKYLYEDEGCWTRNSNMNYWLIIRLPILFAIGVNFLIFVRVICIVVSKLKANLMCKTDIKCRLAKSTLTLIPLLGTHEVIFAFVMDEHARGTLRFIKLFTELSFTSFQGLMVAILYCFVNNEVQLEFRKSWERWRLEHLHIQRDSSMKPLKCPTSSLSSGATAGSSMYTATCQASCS
Format: cell-based
Protocol: GLP-1R mediated agonist activity was determined using the cAMP Hunter CHO-K1 GLP1R Gs cell line (DiscoverX, cat# 95-0062C2), a stable CHO-K1 derived cell lines overexpressing naturally Gs coupled wild-type human GLP-1R (accession number: NM_002062.3). GLP-1R agonism in this cell line was detected by measuring cellular cAMP levels using the HitHunter cAMP assay kit (cat# 90-0075SM2), a homogenous, gain-of-signal competitive immune assay based on Enzyme Fragment Complementation (EFC) technology. In this system cellular cAMP competes with exogenous labeled cAMP (ED-cAMP) for binding to an anti-cAMP antibody. […] The luminescent signal is directly proportional to the amount of cellular cAMP.
For compound testing, cells were seeded in a total volume of 20 μL in white walled, 384-well microplates and incubated at 37° C. prior to compound testing. Prior to compound addition, cell culture media was removed by aspiration and replaced with 15 pt reagent buffer (2:1 HBSS/10 mM HEPES: cAMP XS+Ab reagent). Compounds were dissolved in DSMO and serially diluted (3-fold) prior to final dilution to 4X in assay buffer. Samples (5 μL) were added to cells and incubated at 37° C. for […] prior to 1 hour incubation with 20 pt cAMP XS+ED/CL lysis reagent and 3 hour incubation with 20 μL cAMP XS+EA reagent at room temperature. Microplates were read on a PerkinElmer Envision instrument. Compound activity was analyzed using CBIS data analysis suite (ChemInnovation). Percent activity was calculated based on duplicate assay runs and normalized to the positive control Exendin-4, a GLP-1R peptide agonist, using the following formula: […]
The effective compound concentration resulting in 50% response (EC50) was determined by non-linear regression analysis of dose-response curves.
Molecule O=C(O)c1ccc2nc(CN3CCC(c4cccc(C5CCc6ccccc6C5)n4)CC3)n(C[C@@H]3CCO3)c2c1 (stereo partly drawn) [Compound 12, 1-((S)-oxetan-2-ylmethyl)-2-((4-(6-(1,2,3,4-tetrahydronaphthalen-2-yl)pyridin-2-yl)piperidin-1-yl)methyl)-1H-benzo[d]imidazole-6-carboxylic acid] has an EC50 of 124 nM. Molecule O=C(O)c1ccc2nc(CN3CCN(c4cccc(OCc5nc6ccc(F)cc6s5)n4)CC3)n(C[C@@H]3CCO3)c2c1 [Compound 128, (S)-2-((4-(6-((6-fluorobenzo[d]thiazol-2-yl)methoxy)pyridin-2-yl)piperazin-1-yl)methyl)-1-(oxetan-2-ylmethyl)-1H-benzo[d]imidazole-6-carboxylic acid] has an EC50 of 0.246 nM. For O=C(O)c1ccc2nc(CN3CCN(c4cccc(OCC5CCCCC5)n4)CC3)n(C[C@@H]3CCO3)c2c1 [Compound 1, (S)-2-((4-(6-(cyclohexylmethoxy)pyridin-2-yl)piperazin-1-yl)methyl)-1-(oxetan-2-ylmethyl)-1H-benzo[d]imidazole-6-carboxylic acid], the EC50 was 42.5 nM. For N#Cc1cc(F)c2c(c1)CCN(c1cccc(C3CCN(Cc4nc5ccc(C(=O)O)cc5n4C[C@@H]4CCO4)CC3)n1)C2 [Compound 13, (S)-2-((4-(6-(6-cyano-8-fluoro-3,4-dihydroisoquinolin-2(1H)-yl)pyridin-2-yl)piperidin-1-yl)methyl)-1-(oxetan-2-ylmethyl)-1H-benzo[d]imidazole-6-carboxylic acid], the EC50 was 0.788 nM. Molecule C[C@]1(c2cccc(OCc3ccc(C#N)cc3F)n2)CCN(Cc2nc3ccc(C(=O)O)cc3n2C[C@@H]2CCO2)C1 (single isomer, unassigned) [Compound 20-P2] has an EC50 of 166 nM. Molecule O=C(O)c1ccc2nc(CN3CCC(n4ccc(OCCc5ccccc5)n4)CC3)n(C[C@@H]3CCO3)c2c1 [Compound 99] has an EC50 of 2070 nM. Molecule C[C@H]1COC[C@@H](N2CCC(c3cccc(OCc4ccc(C#N)cc4F)n3)CC2)c2nc3ccc(C(=O)O)cc3n21 (single isomer, unassigned) [Compound 8-P2] has an EC50 of 82.1 nM. In the case of N#Cc1cc(F)c2c(c1)CCN(c1cccc(N3CCN(Cc4nc5ccc(C(=O)O)cc5n4C[C@@H]4CCO4)CC3)n1)C2 [Compound 73, (S)-2-((4-(6-(6-cyano-8-fluoro-3,4-dihydroisoquinolin-2(1H)-yl)pyridin-2-yl)piperazin-1-yl)methyl)-1-(oxetan-2-ylmethyl)-1H-benzo[d]imidazole-6-carboxylic acid], the EC50 is reported as 1.43 nM. For N#Cc1ccc2c(c1)CN(c1cccc(N3CCN(Cc4nc5ccc(C(=O)O)cc5n4C[C@@H]4CCO4)CC3)n1)C2 [Compound 57, (S)-2-((4-(6-(5-cyanoisoindolin-2-yl)pyridin-2-yl)piperazin-1-yl)methyl)-1-(oxetan-2-ylmethyl)-1H-benzo[d]imidazole-6-carboxylic acid], the EC50 was greater than 500 nM. Work on N#Cc1ccc(COc2cccc(C3CCN([C@@H]4COCCn5c4nc4ccc(C(=O)O)cc45)CC3)n2)c(F)c1 (single isomer, unassigned) [Compound 7-P2] yielded an EC50 greater than 500 nM. Work on N#Cc1ccc(COc2ccn(C3CCN(Cc4nc5ccc(C(=O)O)cc5n4C[C@@H]4CCO4)CC3)n2)c(F)c1 [Compound 92, (S)-2-((4-(3-((4-cyano-2-fluorobenzyl)oxy)-1H-pyrazol-1-yl)piperidin-1-yl)methyl)-1-(oxetan-2-ylmethyl)-1H-benzo[d]imidazole-6-carboxylic acid] yielded an EC50 of 8.35 nM. In the case of N#Cc1ccc(COc2cccc(C3CCN([C@@H]4CCCn5c4nc4ccc(C(=O)O)cc45)CC3)n2)c(F)c1 [Compound 87, (R)-4-(4-(6-((4-cyano-2-fluorobenzyl)oxy)pyridin-2-yl)piperidin-1-yl)-1,2,3,4-tetrahydrobenzo[4,5]imidazo[1,2-a]pyridine-8-carboxylic acid], the EC50 is reported as greater than 500 nM. For NC(=O)c1ccc2c(c1)CCN(c1cccc(N3CCN(Cc4nc5ccc(C(=O)O)cc5n4C[C@@H]4CCO4)CC3)n1)C2 [Compound 59, (S)-2-((4-(6-(6-carbamoyl-3,4-dihydroisoquinolin-2(1H)-yl)pyridin-2-yl)piperazin-1-yl)methyl)-1-(oxetan-2-ylmethyl)-1H-benzo[d]imidazole-6-carboxylic acid], the EC50 was 228 nM. Cn1cc(COc2cccc(N3CCN(Cc4nc5ccc(C(=O)O)cc5n4C[C@@H]4CCO4)CC3)n2)cn1 [Compound 86, (S)-2-((4-(6-((1-methyl-1H-pyrazol-4-yl)methoxy)pyridin-2-yl)piperazin-1-yl)methyl)-1-(oxetan-2-ylmethyl)-1H-benzo[d]imidazole-6-carboxylic acid] gave an EC50 of 75.3 nM. For N#Cc1ccc(COc2cccc(N3CCN(Cc4nc5ccc(C(=O)O)cc5n4CC4CCS4(=O)=O)CC3)n2)c(F)c1 (single isomer, unassigned) [Compound 140-P2], the EC50 was 0.17 nM. N#Cc1ccc(COc2cccc(C3CCN([C@H]4COCCn5c4nc4ccc(C(=O)O)cc45)CC3)n2)c(F)c1 (single isomer, unassigned) [Compound 7-P1] gave an EC50 of 5.19 nM. In the case of Cn1cnc2cc(COc3cccc(N4CCN(Cc5nc6ccc(C(=O)O)cc6n5C[C@@H]5CCO5)CC4)n3)ccc21 [Compound 3, (S)-2-((4-(6-((1-methyl-1H-benzo[d]imidazol-5-yl)methoxy)pyridin-2-yl)piperazin-1-yl)methyl)-1-(oxetan-2-ylmethyl)-1H-benzo[d]imidazole-6-carboxylic acid], the EC50 is reported as 9.05 nM. N#CC1(COc2cccc(N3CCN(Cc4nc5ccc(C(=O)O)cc5n4C[C@@H]4CCO4)CC3)n2)COC1 [Compound 61, (S)-2-((4-(6-((3-cyanooxetan-3-yl)methoxy)pyridin-2-yl)piperazin-1-yl)methyl)-1-(oxetan-2-ylmethyl)-1H-benzo[d]imidazole-6-carboxylic acid] showed an EC50 greater than 500 nM. With O=C(O)c1ccc2nc(CN3CCC4(c5cccc(OCc6ccccc6)n5)CC4C3)n(CC3CCO3)c2c1 (stereo not drawn) [Compound 10] the EC50 was 13.9 nM. N#Cc1cccc2c1CCCN2c1cccc(N2CCN(Cc3nc4ccc(C(=O)O)cc4n3C[C@@H]3CCO3)CC2)n1 [Compound 5, (S)-2-((4-(6-(5-cyano-3,4-dihydroquinolin-1(2H)-yl)pyridin-2-yl)piperazin-1-yl)methyl)-1-(oxetan-2-ylmethyl)-1H-benzo[d]imidazole-6-carboxylic acid] gave an EC50 of 315 nM. In the case of O=C(O)c1ccc2nc(CN3CC[C@@]4(c5cccc(OCc6nc7ccccc7s6)n5)C[C@H]4C3)n(C[C@@H]3CCO3)c2c1 (single isomer, unassigned) [Compound 104-P1], the EC50 is reported as 4.91 nM. Work on O=C(O)c1ccc2nc(CN3CCN(c4cccc(OC5CCC6(CCC6)CC5)n4)CC3)n(C[C@@H]3CCO3)c2c1 [Compound 49, (S)-1-(oxetan-2-ylmethyl)-2-((4-(6-(spiro[3.5]nonan-7-yloxy)pyridin-2-yl)piperazin-1-yl)methyl)-1H-benzo[d]imidazole-6-carboxylic acid] yielded an EC50 greater than 500 nM.

Same assay, conditions: Table 3; cAMP Hunter CHO-K1 GLP1R Gs cells; percent activity normalized to Exendin-4
In the case of CCn1cncc1Cn1c(CN2CCC(c3cccc(OCc4nc5c(F)cc(C#N)cc5s4)n3)CC2)nc2ccc(C(=O)O)cc21 [Compound 164, 2-((4-(6-((6-cyano-4-fluorobenzo[d]thiazol-2-yl)methoxy)pyridin-2-yl)piperidin-1-yl)methyl)-1-((1-ethyl-1H-imidazol-5-yl)methyl)-1H-benzo[d]imidazole-6-carboxylic acid], the EC50 is reported as 0.0254 nM. With CCn1ccnc1Cn1c(CN2CC[C@]3(c4cccc(N5CCc6cc(C#N)cc(F)c6C5)n4)C[C@@H]3C2)nc2ccc(C(=O)O)cc21 [Compound 163-P2, 2-(((1S,6R)-6-(6-(6-cyano-8-fluoro-3,4-dihydroisoquinolin-2(1H)-yl)pyridin-2-yl)-3-azabicyclo[4.1.0]heptan-3-yl)methyl)-1-((1-ethyl-1H-imidazol-2-yl)methyl)-1H-benzo[d]imidazole-6-carboxylic acid] the EC50 was 0.414 nM. O=C(O)c1ccc2nc(CN3CCN(c4cccc5c4CCN(c4ccccc4)C5)CC3)n(C[C@@H]3CCO3)c2c1 [Compound 155, (S)-1-(oxetan-2-ylmethyl)-2-((4-(2-phenyl-1,2,3,4-tetrahydroisoquinolin-5-yl)piperazin-1-yl)methyl)-1H-benzo[d]imidazole-6-carboxylic acid] gave an EC50 greater than 500 nM. Molecule N#Cc1ccc([C@H]2CCc3c(cccc3N3CCN(Cc4nc5ccc(C(=O)O)cc5n4C[C@@H]4CCO4)CC3)O2)c(F)c1 (single isomer, unassigned) [Compound 151-P1] has an EC50 of 261 nM. In the case of N#Cc1ccc(N2CCc3ccc(N4CCN(Cc5nc6ccc(C(=O)O)cc6n5C[C@@H]5CCO5)CC4)nc3C2)c(F)c1 [Compound 144, (S)-2-((4-(7-(4-cyano-2-fluorophenyl)-5,6,7,8-tetrahydro-1,7-naphthyridin-2-yl)piperazin-1-yl)methyl)-1-(oxetan-2-ylmethyl)-1H-benzo[d]imidazole-6-carboxylic acid], the EC50 is reported as greater than 500 nM.
